Results published in patent US20260216294A1, “BETA 2-ADRENERGIC RECEPTOR AGONISTS FOR TREATMENT OR PREVENTION OF MUSCLE WASTING” (ATROGI AB, priority 2023, published 2026).

Key:
[1] = biological target: T1, β2-adrenergic receptor (Rattus norvegicus, UniProt P10608); assay: Glucose uptake in the presence of the selective β2-adrenergic receptor antagonist ICI-118551 (Biological Example 1); format: cell-based; conditions: L6-myotubes; test compound 1×10^−5 M; different concentrations of ICI-118551; FIGS. 1a-1c
T1 construct: endogenous in cells; host or cells: L6 myoblasts differentiated into myotubes
T1 sequence (P10608 whole entry): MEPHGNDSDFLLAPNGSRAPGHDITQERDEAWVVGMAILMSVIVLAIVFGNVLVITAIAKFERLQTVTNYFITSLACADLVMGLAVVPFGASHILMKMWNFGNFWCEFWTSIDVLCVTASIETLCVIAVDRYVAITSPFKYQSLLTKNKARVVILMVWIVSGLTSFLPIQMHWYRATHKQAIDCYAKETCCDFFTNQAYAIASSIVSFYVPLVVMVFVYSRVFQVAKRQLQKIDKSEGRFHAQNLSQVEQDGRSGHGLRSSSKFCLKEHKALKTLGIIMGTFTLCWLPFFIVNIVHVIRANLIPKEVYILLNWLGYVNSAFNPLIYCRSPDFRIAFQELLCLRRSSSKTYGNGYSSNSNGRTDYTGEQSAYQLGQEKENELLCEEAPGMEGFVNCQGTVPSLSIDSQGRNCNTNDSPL
Procedure: L6-myoblasts were grown in Dulbecco's Modified Eagle's Medium (DMEM) containing 1 g/L glucose supplemented with 10% fetal bovine serum (FBS), 2 mM L-glutamine, 50 U/mL penicillin, 50 μg/mL streptomycin and 10 mM HEPES. Cells were plated at 1×10^5 cells per mL in 24-well plates. After reaching 90% confluence the cells were grown in medium containing 2% FBS for 7 days where upon cells differentiated into myotubes. The differentiated L6-myotubes were serum-starved overnight in medium containing 0.5% fatty-acid free BSA and stimulated with the test compound at a final concentration of 1×10^−5 M in the presence of different concentrations of the selective β2-adrenergic receptor antagonist ICI-118551. After 1 h 40 min the cells were washed with warm, glucose free medium twice and another portion of agonist was added to the glucose free medium. After another 20 min of incubation the cells were exposed to 50 nM ^3H-2-deoxyglucose for 10 min before washed in ice cold glucose free medium three times and lysed in 400 μL/well 0.2 M NaOH for 1 h at 60° C. The cell lysate was mixed with 4 ml scintillation buffer (Emulsifier Safe, Perkin Elmer) and the radioactivity was detected in a β-counter (Tri-Carb 4810TR, Perkin Elmer).

[2] = system: L6-myotubes; assay: Glucose uptake in differentiated L6-myotubes (Biological Example 2); format: cell-based; conditions: L6-myotubes; FIGS. 2a-2d
Method in brief: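 Differentiated L6 myotubes were serum-starved overnight in 0.5% fatty-acid-free BSA and then stimulated with compound or isoprenaline at 1×10^−5 M final. After 1 h 40 min cells were washed and re-dosed in glucose-free medium. Twenty minutes later, uptake of 50 nM ^3H-2-deoxyglucose over 10 min was measured by scintillation counting of NaOH lysates.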

[3] = system: L6-myotubes; assay: Measurement of intracellular cAMP levels in differentiated L6-myotubes (Biological Example 3); format: cell-based; conditions: L6-myotubes; 15 min stimulation; compared with isoprenaline; FIGS. 2a-2d
Method in brief: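 Serum-starved differentiated L6 myotubes stimulated 15 min with test compound at 1×10^−5 M final (isoprenaline as reference) in HBSS with 1% BSA, 5 mM HEPES, 1 mM IBMX, pH 7.4. Cells EtOH-extracted, lysed, and intracellular cAMP measured by AlphaScreen.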

[4] = biological target: T2, β2-adrenergic receptor (Homo sapiens, UniProt P07550); assay: β-arrestin 2 recruitment, Large BiT/Small BiT luciferase complementation in HEK293 cells (Biological Example 4); format: cell-based; conditions: luminescence after 31 min, compared with isoprenaline, FIGS. 3a-3c
T2 construct: expressed in transfected cells; host or cells: HEK293
T2 sequence (P07550 whole entry, species assumed): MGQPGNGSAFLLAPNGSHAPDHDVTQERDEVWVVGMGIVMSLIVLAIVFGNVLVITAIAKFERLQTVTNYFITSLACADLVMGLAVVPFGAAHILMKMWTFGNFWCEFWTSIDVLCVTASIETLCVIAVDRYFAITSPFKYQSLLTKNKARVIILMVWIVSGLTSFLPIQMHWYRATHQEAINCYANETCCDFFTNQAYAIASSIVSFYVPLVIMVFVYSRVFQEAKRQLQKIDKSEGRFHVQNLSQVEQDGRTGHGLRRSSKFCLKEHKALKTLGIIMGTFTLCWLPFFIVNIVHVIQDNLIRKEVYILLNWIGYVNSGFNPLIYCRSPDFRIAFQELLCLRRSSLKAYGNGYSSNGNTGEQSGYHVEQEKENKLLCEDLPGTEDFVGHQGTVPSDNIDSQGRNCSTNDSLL
Procedure: HEK293 cells are transfected with both the β2-adrenergic receptor attached with a Large BiT SNAP-tag protein, and with p-arrestin 2 attached to a Small BiT SNAP-tag protein. When cells are stimulated and the receptor recruits β-arrestin 2, the Small- and Large-BiT proteins merge, forming a functional luciferase enzyme, that in presence of furimazine generates light. After 31 min, the light is measured with a luminescence plate reader.

[5] = system: C57Bl/6N mice; assay: Combination of Compound C and liraglutide in mice on high-fat, high-sucrose diet (Biological Example 8); format: in vivo; conditions: diet-induced obese mice; daily s.c. for 2 weeks; liraglutide 0.1 mg/kg, Compound C 5 mg/kg; FIG. 12b
Procedure: 2.5 Months old male C57Bl/6N mice were grouped caged (4-5 mice per cage), kept at 30° C. and fed with high-fat, high-sucrose diet (45% fat) for 5 months. The mice were divided into four groups (2-3 mice per cage) according to their fasting blood glucose levels, glucose tolerance, body weight, body fat and lean mass, and treated daily for 2 weeks, subcutaneously with either vehicle, liraglutide (0.1 mg/kg), Compound C (5 mg/kg), or a mixture of liraglutide (0.1 mg/kg) and Compound C (5 mg/kg). Food intake and body weight were measured every other day; body fat and lean mass were measured weekly.

CC(C)(C)NC[C@H](O)c1ccc(F)c(N)c1F.O=C(O)/C=C\C(=O)O [Compound C, (R)-1-(3-Amino-2,4-difluorophenyl)-2-(tert-butylamino)ethan-1-ol maleate]
glucose uptake promoted by the compound in the presence of ICI-118551 [1]: inhibited in a dose-dependent manner | glucose uptake [2]: full glucose uptake response | intracellular cAMP levels [3]: low intracellular cAMP levels | β-arrestin 2 recruitment [4]: minimal p-arrestin 2 recruitment | change in lean mass [5]: significantly lower as compared to administration of liraglutide alone
